The values below come from ChEMBL document CHEMBL5331103, “Discovery of novel 2-hydroxyl-4-benzyloxybenzyl aniline derivatives as potential multifunctional agents for the treatment of Parkinson's disease” (Eur J Med Chem, 2023).

As usually defined, the IC50 is the concentration needed to halve the response being measured. The low end stands for higher potency, the high end for lower potency. For orientation: inhibition means the share of the control response that was lost under treatment.

The target of series [1] is T1, Amine oxidase [flavin-containing] B (Homo sapiens, UniProt P27338).
T1 sequence (P27338 whole entry): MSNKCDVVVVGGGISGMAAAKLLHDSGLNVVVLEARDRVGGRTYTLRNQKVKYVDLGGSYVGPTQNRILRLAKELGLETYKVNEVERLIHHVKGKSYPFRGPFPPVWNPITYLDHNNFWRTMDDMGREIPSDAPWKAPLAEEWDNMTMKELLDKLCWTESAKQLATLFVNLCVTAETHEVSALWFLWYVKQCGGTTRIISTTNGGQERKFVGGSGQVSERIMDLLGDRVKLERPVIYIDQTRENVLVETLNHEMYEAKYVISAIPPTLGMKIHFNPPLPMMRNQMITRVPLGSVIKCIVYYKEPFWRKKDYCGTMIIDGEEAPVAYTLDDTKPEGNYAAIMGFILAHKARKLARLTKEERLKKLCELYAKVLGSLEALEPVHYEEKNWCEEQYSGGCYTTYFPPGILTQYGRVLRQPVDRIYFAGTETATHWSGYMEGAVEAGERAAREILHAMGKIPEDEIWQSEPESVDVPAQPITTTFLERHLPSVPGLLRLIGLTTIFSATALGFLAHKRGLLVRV
Description: Inhibition of MAO-B (unknown origin) using kynuramine as substrate preincubated for 30 mins followed by substrate addition and measured after 30 mins by fluorescence based analysis

The target in series [2] is T2, Amine oxidase [flavin-containing] A (Homo sapiens, UniProt P21397).
T2 sequence (P21397 whole entry): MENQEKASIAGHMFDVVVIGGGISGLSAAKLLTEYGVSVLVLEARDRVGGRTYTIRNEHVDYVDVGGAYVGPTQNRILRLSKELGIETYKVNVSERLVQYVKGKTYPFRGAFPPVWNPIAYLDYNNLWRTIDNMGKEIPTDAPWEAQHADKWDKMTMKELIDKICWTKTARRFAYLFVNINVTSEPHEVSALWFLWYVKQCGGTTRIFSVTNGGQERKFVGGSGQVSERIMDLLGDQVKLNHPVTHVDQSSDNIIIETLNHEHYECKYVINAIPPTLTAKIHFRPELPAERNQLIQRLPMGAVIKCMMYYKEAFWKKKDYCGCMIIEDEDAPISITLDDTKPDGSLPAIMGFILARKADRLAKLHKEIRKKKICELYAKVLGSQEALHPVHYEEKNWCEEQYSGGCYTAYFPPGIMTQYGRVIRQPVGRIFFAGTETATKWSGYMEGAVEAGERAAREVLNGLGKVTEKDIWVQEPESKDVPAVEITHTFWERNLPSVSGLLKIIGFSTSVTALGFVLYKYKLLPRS
Put plainly: Inhibition of MAO-A (unknown origin) using kynuramine as substrate at 10 uM preincubated for 30 mins followed by substrate addition and measured after 30 mins by fluorescence based analysis relative to control. Conditions: 0.5 h, time 60 min.

For series [3], the system named is BV-2. Put plainly: Anti-neuroinflammatory activity in mouse BV-2 cells assessed as inhibition of LPS-induced TNF-alpha production at 10 uM preincubated for 30 mins followed by LPS stimulation and measured after 24 hrs by ELISA analysis relative to control. In kind it is functional. Conditions: time 24.5 hrs.
The test system of series [4] is PC-12. The series can be described thus: Cytotoxicity against rat PC-12 cells assessed as reduction in cell viability at 10 uM incubated for 2 hrs by MTT assay. In kind it is toxicity, cell-based. Conditions: pc-12, 2 h. Background: Tetrazolium assays rely on reduction of a dye to a coloured formazan, in cell work by metabolically active cells.
Series [5] has as its system PC-12. Put plainly: Neuroprotective activity against H2O2-induced cell damage in rat PC-12 cells assessed as increase in cell viability at 10 uM preincubated for 2 hrs followed by H2O2 addition and measured after 24 hrs by MTT assay (reference value: 50.3%). In kind it is functional. Conditions: time 26 hrs.
Series [6] relates to BV-2. The series can be described thus: Anti-neuroinflammatory activity in mouse BV-2 cells assessed as inhibition of LPS-induced NO production at 10 uM preincubated for 30 mins followed by LPS stimulation and measured after 24 hrs by Griess reagent based assay relative to control. In kind it is functional. Conditions: time 24.5 hrs. For orientation: Griess reagent forms a coloured azo dye with nitrite.

The subject of series [7] is BV-2. Put plainly: Inhibition of LPS-induced ROS production in mouse BV-2 cells at 10 uM preincubated for 30 mins followed by LPS-stimulation and measured after 30 mins by DCFH-DA based fluorescence microplate reader analysis relative to control. In kind it is functional. Conditions: BV-2, 1 h, time 60 min.
The test system of series [8] is BV-2. Put plainly: Cytotoxicity against mouse BV-2 cells assessed as reduction in cell viability upto 10 uM incubated for 30 mins by MTT assay. In kind it is toxicity, cell-based. Conditions: bv-2, 0.5 h.
The species entered for the next series is Mus musculus. Conditions: C57BL/6C, dose 50.0 mg/kg, route ig, time 3.0 weeks.

The source made the active and inactive calls. The rule behind the calls is not given here.

In turn, `Oc1cc(OCc2ccc(F)c(Cl)c2)ccc1CNc1ccccc1` returned an IC50 in series [1] of 33 nM. Moreover, in series [2], the inhibition at 10 µM is 49.2%.
`Oc1cc(OCc2ccccc2Cl)ccc1CNc1ccccc1` had a 50% inhibitory concentration (IC50) in series [1] of 423 nM. In addition, in series [2], the inhibition at 10 µM was found to be 10.3%.
`CC(C)(C)c1ccc(COc2ccc(CNc3ccccc3)c(O)c2)cc1` yielded a half-inhibitory concentration (IC50) in [1] of 435 nM. For the same compound, the inhibition at 10 µM in series [2] was < 5%.
The compound `Oc1cc(OCc2ccccc2F)ccc1CNc1ccccc1` came in with an IC50 in series [1] of 334 nM. 10 µM produced 8.34% inhibition in [2].
On to `Oc1cc(OCc2cccc(F)c2)ccc1CNc1ccccc1`, for which, in [1], the IC50 was determined as 95 nM. In series [2], this compound displayed an inhibition at 10 µM of 11.8%.
As for `Oc1ccc(/C=C/c2cc(O)cc(O)c2)cc1` [RESVERATROL], the inhibition at 10 µM is 52.2% in the series on BV-2 [3], 51.8% in the series with BV-2 [6] and 56.7% with BV-2 [7]. Moreover, the Activity result in the series on PC-12 [4] is reported as “Non-Toxic”; with PC-12 [5], 63.6%; with BV-2 [8] it was “Non-Toxic”.
`Oc1cc(OCc2cccc(Cl)c2)ccc1CNc1ccccc1`: the IC50 in [1] amounted to 249 nM. Moreover, the inhibition at 10 µM in series [2] was 20.5%.
With `Oc1cc(OCc2ccc(Cl)cc2)ccc1CNc1ccccc1`, in series [1], the midpoint of inhibition, the IC50, lay at 58 nM. The same compound displayed an inhibition at 10 µM in [2] of 51.2%.
On to `Oc1cc(OCc2cccc(C(F)(F)F)c2)ccc1CNc1ccccc1`, for which the 50% inhibitory concentration (IC50) in series [1] came to 297 nM. The compound also showed an inhibition at 10 µM in [2] of 9.25%.
Regarding `C[C@H](NCc1ccc(OCc2cccc(F)c2)cc1)C(N)=O` [SAFINAMIDE], the inhibition result in the series filed under Mus musculus was “Active”. In series [2], the inhibition at 10 µM was found to be 25.7%.
For the compound `Oc1cc(OCc2ccc(F)c(F)c2)ccc1CNc1ccccc1`, in [1], the IC50 is 21 nM. The compound further gave an inhibition at 10 µM in series [2] of 48%.
Compound `Oc1cc(OCc2ccc(Cl)c(Cl)c2)ccc1CNc1ccccc1` yielded a concentration for half-maximal inhibition (IC50) in [1] of 49 nM. This compound also came in with an inhibition at 10 µM in series [2] of 52.5%.
For the compound `Oc1cc(OCc2ccccc2)ccc1CNc1ccccc1`, in [1], inhibition was half-maximal at 481 nM (IC50). Also, in series [2], the inhibition at 10 µM was determined as 14.7%.
For the compound `Cc1ccc(COc2ccc(CNc3ccccc3)c(O)c2)cc1`, half-maximal inhibition in series [1] (IC50) required 366 nM. This compound came in with an inhibition at 10 µM in series [2] of 26.4%.
Turning to `Oc1cccc(NCc2ccc(OCc3ccc(F)cc3)cc2O)c1`, the IC50 in series [1] was found to be 67 nM. In series [2], this compound showed an inhibition at 10 µM of 35.5%.
Regarding `Oc1cc(OCc2ccc(F)cc2)ccc1CNc1ccccc1F`, the IC50 in series [1] is 35 nM. Besides, the inhibition at 10 µM in [2] was found to be 38.3%.
On to `COc1cccc(COc2ccc(CNc3ccccc3)c(O)c2)c1`, for which, in series [1], the 50% inhibitory concentration (IC50) came out at 343 nM. For the same compound, the inhibition at 10 µM in series [2] is < 5%.
As to `O=[N+]([O-])c1ccc(COc2ccc(CNc3ccccc3)c(O)c2)cc1`, the IC50 in series [1] worked out at 85 nM. The same compound had an inhibition at 10 µM in [2] of 30.6%.
